# According to patent publication US7811352B2, “Fertilizer compositions and methods of using” (priority 2005, dated 2010):
# Tests used:
# Bermuda grass [1] = assay: Turfgrass quality and color ratings, Bermuda grass fairway (Example 10); type: in vivo; conditions: scale 1-10
# From the text: (§1) In this Example, the effect of a fertilizer comprising lysine on warm season turfgrass growth was examined. The effects of lysine (HCl) and LIQUID LYSINE on a common type of golf course fairway quality turfgrass (Bermuda grass) were compared with those of urea and Milorganite.
# (§2) Fifteen fertilizer treatments comprising three concentrations of each fertilizer composition (Milorganite (N—P—K, 6-2-0), urea (N—P—K, 46-0-0), LIQUID LYSINE (N—P—K, 10-2-1), and both granular and aqueous lysine (HCl) (N—P—K, 15-2-1)) were prepared and applied to 4 replications of Bermuda grass. The aqueous lysine (HCl) was dissolved in water prior to application. Each fertilizer treatment was applied in concentrations of 0.5 lb N/1000 ft^2/month, 1.0 lb N/1000 ft^2/month and 3.0 lb N/1000 ft^2/month. The urea, LIQUID LYSINE and aqueous lysine (HCl) were applied as foliar liquids, while Milorganite and granular lysine (HCl) were applied as granular fertilizers Plot size was 1 m×2 m set up as a randomized complete block. Plots were mowed at 0.5 inches before fertilizer application. Irrigation (0.15 inch) was applied following application. Plots were rated for turfgrass quality and color (scale of 1-10 where 10=dark green turf, 1=dead/brown turf, and 6=minimally acceptable turf) and phytotoxicity (scale of 0-5, where 5=worst, and 2=minimally objectionable) throughout the study period. Quality, color, and phytotoxicity were measured on 2 days before application (day −2) and day 2, day 5, day 15 and day 21 after application. All data was subject to statistical analysis and significant means were determined. Average turfgrass quality ratings for the treatments are presented in Table 9 and the quality results for application rates of 1.0 lb N/1000 ft^2/month are graphically presented in FIG. 4.
# Bermuda grass [2] = assay: Phytotoxicity rating, Bermuda grass fairway (Example 10); type: in vivo; conditions: scale 0-5, 5=worst
# From the text: as §1, §2
# [3] = Monthly Rate 0.5 lbs N/1000 ft^2, Day 2
# [4] = Monthly Rate 0.5 lbs N/1000 ft^2, Day 2, (HCl)
# [5] = Monthly Rate 0.5 lbs N/1000 ft^2, Day 5, (HCl)
# [6] = Monthly Rate 0.5 lbs N/1000 ft^2, Day 15, (HCl)
# [7] = Monthly Rate 0.5 lbs N/1000 ft^2, Day 21, (HCl)
# [8] = Monthly Rate 0.5 lbs N/1000 ft^2, Day −2 (before application)
# [9] = Monthly Rate 0.5 lbs N/1000 ft^2, Day −2 (before application), (HCl)
# [10] = Monthly Rate 1.0 lbs N/1000 ft^2, Day 2, (HCl)
# [11] = Monthly Rate 1.0 lbs N/1000 ft^2, Day 5, (HCl)
# [12] = Monthly Rate 1.0 lbs N/1000 ft^2, Day 15
# [13] = Monthly Rate 1.0 lbs N/1000 ft^2, Day 15, (HCl)
# [14] = Monthly Rate 1.0 lbs N/1000 ft^2, Day 21, (HCl)
# [15] = Monthly Rate 1.0 lbs N/1000 ft^2, Day −2 (before application), (HCl)
# [16] = Monthly Rate 3.0 lbs N/1000 ft^2, Day 2
# [17] = Monthly Rate 3.0 lbs N/1000 ft^2, Day 5
# [18] = Monthly Rate 3.0 lbs N/1000 ft^2, Day 5, (HCl)
# [19] = Monthly Rate 3.0 lbs N/1000 ft^2, Day 15, (HCl)
# [20] = Monthly Rate 3.0 lbs N/1000 ft^2, Day 21, (HCl)
# [21] = Monthly Rate 3.0 lbs N/1000 ft^2, Day −2 (before application), (HCl)
# [22] = Monthly Rate 0.5 lbs N/1000 ft^2, Day 5
# [23] = Monthly Rate 0.5 lbs N/1000 ft^2, Day 15
# [24] = Monthly Rate 0.5 lbs N/1000 ft^2, Day 21
# [25] = Monthly Rate 1.0 lbs N/1000 ft^2, Day 2
# [26] = Monthly Rate 1.0 lbs N/1000 ft^2, Day 5
# [27] = Monthly Rate 1.0 lbs N/1000 ft^2, Day 21
# [28] = Monthly Rate 1.0 lbs N/1000 ft^2, Day −2 (before application)
# [29] = Monthly Rate 3.0 lbs N/1000 ft^2, Day 2, (HCl)
# [30] = Monthly Rate 3.0 lbs N/1000 ft^2, Day 15
# [31] = Monthly Rate 3.0 lbs N/1000 ft^2, Day 21
# [32] = Monthly Rate 3.0 lbs N/1000 ft^2, Day −2 (before application)
smiles,measurement,setting,value
"Cl.NCCCC[C@H](N)C(=O)O [Lys (HCl) 15% N (gran), lysine (HCl)]",Quality Ratings - Bermuda Grass,Bermuda grass [1]; [3],7.3b
same,Color Ratings - Bermuda Grass,Bermuda grass [1]; [4],7.5
same,Color Ratings - Bermuda Grass,Bermuda grass [1]; [5],8.0def
same,Quality Ratings - Bermuda Grass,Bermuda grass [1]; [5],7.6bcd
same,Color Ratings - Bermuda Grass,Bermuda grass [1]; [6],7.1e
same,Quality Ratings - Bermuda Grass,Bermuda grass [1]; [6],7.4e
same,Color Ratings - Bermuda Grass,Bermuda grass [1]; [7],8.3b
same,Quality Ratings - Bermuda Grass,Bermuda grass [1]; [7],7.9def
same,Color Ratings - Bermuda Grass,Bermuda grass [1]; [8],6.5
same,Quality Ratings - Bermuda Grass,Bermuda grass [1]; [9],6.5
same,Color Ratings - Bermuda Grass,Bermuda grass [1]; [10],7.9
same,Quality Ratings - Bermuda Grass,Bermuda grass [1]; [10],7.6ab
same,Color Ratings - Bermuda Grass,Bermuda grass [1]; [11],8.3bcd
same,Quality Ratings - Bermuda Grass,Bermuda grass [1]; [11],7.9abc
same,Color Ratings - Bermuda Grass,Bermuda grass [1]; [12],7.8cd
same,Quality Ratings - Bermuda Grass,Bermuda grass [1]; [13],8.1cd
same,Color Ratings - Bermuda Grass,Bermuda grass [1]; [14],8.3b
same,Quality Ratings - Bermuda Grass,Bermuda grass [1]; [14],8.1bcd
same,Color Ratings - Bermuda Grass,Bermuda grass [1]; [15],6.4
same,Quality Ratings - Bermuda Grass,Bermuda grass [1]; [15],6.3
same,Color Ratings - Bermuda Grass,Bermuda grass [1]; [16],7.3
same,Quality Ratings - Bermuda Grass,Bermuda grass [1]; [16],7.4b
same,Color Ratings - Bermuda Grass,Bermuda grass [1]; [17],9.0a
same,Quality Ratings - Bermuda Grass,Bermuda grass [1]; [18],8.5a
same,Color Ratings - Bermuda Grass,Bermuda grass [1]; [19],8.6a
same,Quality Ratings - Bermuda Grass,Bermuda grass [1]; [19],9.4a
same,Color Ratings - Bermuda Grass,Bermuda grass [1]; [20],8.9a
same,Quality Ratings - Bermuda Grass,Bermuda grass [1]; [20],8.6a
same,Color Ratings - Bermuda Grass,Bermuda grass [1]; [21],6.4
same,Quality Ratings - Bermuda Grass,Bermuda grass [1]; [21],6.1
same,Phytotoxicity - Bermuda Grass,Bermuda grass [2]; [3],0.0b
same,Phytotoxicity - Bermuda Grass,Bermuda grass [2]; [22],0
same,Phytotoxicity - Bermuda Grass,Bermuda grass [2]; [23],0
same,Phytotoxicity - Bermuda Grass,Bermuda grass [2]; [24],0
same,Phytotoxicity - Bermuda Grass,Bermuda grass [2]; [8],0
same,Phytotoxicity - Bermuda Grass,Bermuda grass [2]; [25],0.0b
same,Phytotoxicity - Bermuda Grass,Bermuda grass [2]; [26],0
same,Phytotoxicity - Bermuda Grass,Bermuda grass [2]; [12],0
same,Phytotoxicity - Bermuda Grass,Bermuda grass [2]; [27],0
same,Phytotoxicity - Bermuda Grass,Bermuda grass [2]; [28],0
same,Phytotoxicity - Bermuda Grass,Bermuda grass [2]; [29],0.5a
same,Phytotoxicity - Bermuda Grass,Bermuda grass [2]; [17],0
same,Phytotoxicity - Bermuda Grass,Bermuda grass [2]; [30],0
same,Phytotoxicity - Bermuda Grass,Bermuda grass [2]; [31],0
same,Phytotoxicity - Bermuda Grass,Bermuda grass [2]; [32],0
"Cl.NCCCC[C@H](N)C(=O)O [Lys (HCl) 15% N (aq), lysine (HCl)]",Quality Ratings - Bermuda Grass,Bermuda grass [1]; [3],7.3b
same,Color Ratings - Bermuda Grass,Bermuda grass [1]; [4],7.3
same,Color Ratings - Bermuda Grass,Bermuda grass [1]; [5],7.8 g·days
same,Quality Ratings - Bermuda Grass,Bermuda grass [1]; [5],7.1 days
same,Color Ratings - Bermuda Grass,Bermuda grass [1]; [6],7.6cde
same,Quality Ratings - Bermuda Grass,Bermuda grass [1]; [6],7.8de
same,Color Ratings - Bermuda Grass,Bermuda grass [1]; [7],8.0bc
same,Quality Ratings - Bermuda Grass,Bermuda grass [1]; [7],8.0cde
same,Color Ratings - Bermuda Grass,Bermuda grass [1]; [8],6.5
same,Quality Ratings - Bermuda Grass,Bermuda grass [1]; [9],6.3
same,Color Ratings - Bermuda Grass,Bermuda grass [1]; [10],7.3
same,Quality Ratings - Bermuda Grass,Bermuda grass [1]; [10],7.0b
same,Color Ratings - Bermuda Grass,Bermuda grass [1]; [11],8.1cde
same,Quality Ratings - Bermuda Grass,Bermuda grass [1]; [11],7.8bcd
same,Color Ratings - Bermuda Grass,Bermuda grass [1]; [12],7.8cd
same,Quality Ratings - Bermuda Grass,Bermuda grass [1]; [13],7.9de
same,Color Ratings - Bermuda Grass,Bermuda grass [1]; [14],8.0bc
same,Quality Ratings - Bermuda Grass,Bermuda grass [1]; [14],8.0cde
same,Color Ratings - Bermuda Grass,Bermuda grass [1]; [15],6.5
same,Quality Ratings - Bermuda Grass,Bermuda grass [1]; [15],6.4
same,Color Ratings - Bermuda Grass,Bermuda grass [1]; [16],7.3
same,Quality Ratings - Bermuda Grass,Bermuda grass [1]; [16],7.4b
same,Color Ratings - Bermuda Grass,Bermuda grass [1]; [17],9.0a
same,Quality Ratings - Bermuda Grass,Bermuda grass [1]; [18],8.3ab
same,Color Ratings - Bermuda Grass,Bermuda grass [1]; [19],8.3ab
same,Quality Ratings - Bermuda Grass,Bermuda grass [1]; [19],8.8b
same,Color Ratings - Bermuda Grass,Bermuda grass [1]; [20],8.8a
same,Quality Ratings - Bermuda Grass,Bermuda grass [1]; [20],8.5ab
same,Color Ratings - Bermuda Grass,Bermuda grass [1]; [21],6.1
same,Quality Ratings - Bermuda Grass,Bermuda grass [1]; [21],6.0
same,Phytotoxicity - Bermuda Grass,Bermuda grass [2]; [3],0.0b
same,Phytotoxicity - Bermuda Grass,Bermuda grass [2]; [22],0
same,Phytotoxicity - Bermuda Grass,Bermuda grass [2]; [23],0
same,Phytotoxicity - Bermuda Grass,Bermuda grass [2]; [24],0
same,Phytotoxicity - Bermuda Grass,Bermuda grass [2]; [8],0
same,Phytotoxicity - Bermuda Grass,Bermuda grass [2]; [25],0.0b
same,Phytotoxicity - Bermuda Grass,Bermuda grass [2]; [26],0
same,Phytotoxicity - Bermuda Grass,Bermuda grass [2]; [12],0
same,Phytotoxicity - Bermuda Grass,Bermuda grass [2]; [27],0
same,Phytotoxicity - Bermuda Grass,Bermuda grass [2]; [28],0
same,Phytotoxicity - Bermuda Grass,Bermuda grass [2]; [29],0.3ab
same,Phytotoxicity - Bermuda Grass,Bermuda grass [2]; [17],0
same,Phytotoxicity - Bermuda Grass,Bermuda grass [2]; [30],0
same,Phytotoxicity - Bermuda Grass,Bermuda grass [2]; [31],0
same,Phytotoxicity - Bermuda Grass,Bermuda grass [2]; [32],0
